# Reference: ChEMBL document CHEMBL5346943, “Discovery and Structural Optimization of Novel Quinolone Derivatives as Potent Irreversible Pan-Fibroblast Growth Factor Receptor Inhibitors for Treating Solid Tumors” (J Med Chem, 2023)
# Key:
# Huh-7 = experiment: Antiproliferative activity against human Huh-7 cells incubated for 72 hrs by Cell counting kit 8 method; format: functional, cell-based; details: Huh-7, 72 h
# [1] = target: T1, Fibroblast growth factor receptor 4 (Homo sapiens, UniProt P22455); experiment: Inhibition of FGFR4 (unknown origin) at 100 nM incubated for 10 mins followed by substrate addition measured after 60 mins by ADP-Glo luminescence assay relative to control; details: time 70.0 min
# Target sequence in this assay (P22455 22-802 limits assumed): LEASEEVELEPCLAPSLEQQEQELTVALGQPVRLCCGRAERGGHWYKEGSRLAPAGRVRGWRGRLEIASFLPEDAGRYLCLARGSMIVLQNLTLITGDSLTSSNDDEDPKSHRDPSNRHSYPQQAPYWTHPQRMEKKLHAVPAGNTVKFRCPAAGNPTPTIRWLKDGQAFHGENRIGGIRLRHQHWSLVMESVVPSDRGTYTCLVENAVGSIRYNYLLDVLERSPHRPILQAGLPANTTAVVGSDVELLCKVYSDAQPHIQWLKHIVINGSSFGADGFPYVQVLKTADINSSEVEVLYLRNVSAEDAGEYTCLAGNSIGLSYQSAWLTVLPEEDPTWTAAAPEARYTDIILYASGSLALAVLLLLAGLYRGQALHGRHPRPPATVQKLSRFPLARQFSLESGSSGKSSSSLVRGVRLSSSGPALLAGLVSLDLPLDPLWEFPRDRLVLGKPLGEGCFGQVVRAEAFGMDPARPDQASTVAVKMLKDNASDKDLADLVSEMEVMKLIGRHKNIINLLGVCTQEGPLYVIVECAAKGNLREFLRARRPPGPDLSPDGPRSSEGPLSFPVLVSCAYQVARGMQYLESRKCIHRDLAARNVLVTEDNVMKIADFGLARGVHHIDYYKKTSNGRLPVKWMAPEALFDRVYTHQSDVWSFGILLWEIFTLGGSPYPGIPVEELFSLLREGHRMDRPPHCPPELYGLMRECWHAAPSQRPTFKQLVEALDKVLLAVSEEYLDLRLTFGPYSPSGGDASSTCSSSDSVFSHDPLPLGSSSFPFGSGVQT
# Hep 3B2 = experiment: Antiproliferative activity against human Hep3B cells incubated for 72 hrs by Cell counting kit 8 method; format: functional, cell-based
# [2] = target: T1, Fibroblast growth factor receptor 4; experiment: Inhibition of FGFR4 (unknown origin) incubated for 10 mins followed by substrate addition measured after 60 mins by ADP-Glo luminescence assay
# Target sequence in this assay (P22455 whole entry): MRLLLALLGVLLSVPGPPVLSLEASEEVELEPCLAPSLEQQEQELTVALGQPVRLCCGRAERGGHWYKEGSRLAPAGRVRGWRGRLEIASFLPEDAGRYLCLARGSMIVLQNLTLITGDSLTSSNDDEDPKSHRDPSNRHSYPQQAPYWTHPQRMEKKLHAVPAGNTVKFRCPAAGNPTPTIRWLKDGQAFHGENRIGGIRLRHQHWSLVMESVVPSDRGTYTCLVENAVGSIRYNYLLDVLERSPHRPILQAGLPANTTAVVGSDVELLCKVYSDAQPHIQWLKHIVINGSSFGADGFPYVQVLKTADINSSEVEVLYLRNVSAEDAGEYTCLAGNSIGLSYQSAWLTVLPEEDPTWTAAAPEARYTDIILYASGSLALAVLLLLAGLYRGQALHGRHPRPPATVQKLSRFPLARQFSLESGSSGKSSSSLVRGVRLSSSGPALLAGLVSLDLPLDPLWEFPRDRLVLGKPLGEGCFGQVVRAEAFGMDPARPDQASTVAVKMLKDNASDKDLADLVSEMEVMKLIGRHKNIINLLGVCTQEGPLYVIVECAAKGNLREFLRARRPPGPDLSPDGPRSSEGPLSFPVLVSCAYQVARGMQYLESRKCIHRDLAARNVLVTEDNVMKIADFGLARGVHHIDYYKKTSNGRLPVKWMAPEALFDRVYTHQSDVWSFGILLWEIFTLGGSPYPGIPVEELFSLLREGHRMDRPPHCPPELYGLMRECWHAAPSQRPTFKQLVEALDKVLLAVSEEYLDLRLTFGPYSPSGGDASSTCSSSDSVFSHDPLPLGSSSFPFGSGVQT
# [3] = AUC (0 to t) in Sprague-Dawley rat measured at 10 mg/kg, po for 0.083 to 24 hrs by LC-MS/MS analysis; format: ADME, organism-based; set-up: dose 10 mg/kg, time upper 24 hrs, time lower 0.083 hrs, route po; details: in vivo
# [4] = AUC (0 to infinity) in Sprague-Dawley rat measured at 10 mg/kg, po for 0.083 to 24 hrs by LC-MS/MS analysis; format: ADME, organism-based; set-up: dose 10 mg/kg, time upper 24 hrs, time lower 0.083 hrs, route po; details: in vivo
# [5] = MRT (0 to infinity) in Sprague-Dawley rat measured at 10 mg/kg, po for 0.083 to 24 hrs by LC-MS/MS analysis; format: ADME, organism-based; details: in vivo, time 0.083-24 hrs
# [6] = Oral bioavailability in Sprague-Dawley rat measured at 10 mg/kg for 0.083 to 24 hrs by LC-MS/MS analysis; format: ADME, organism-based; details: in vivo, time 0.083-24 hrs
# [7] = Tmax in Sprague-Dawley rat measured at 2 mg/kg, iv for 0.083 to 24 hrs by LC-MS/MS analysis; format: ADME, organism-based; details: in vivo, time 0.083-24 hrs
# [8] = AUC (0 to t) in Sprague-Dawley rat measured at 2 mg/kg, iv for 0.083 to 24 hrs by LC-MS/MS analysis; format: ADME, organism-based; set-up: dose 2 mg/kg, time upper 24 hrs, time lower 0.083 hrs, route iv; details: in vivo
# [9] = C0 in Sprague-Dawley rat measured at 2 mg/kg, iv for 0.083 to 24 hrs by LC-MS/MS analysis; format: ADME, organism-based; details: in vivo, time 0.083-24 hrs
# [10] = Tmax in Sprague-Dawley rat measured at 10 mg/kg, po for 0.083 to 24 hrs by LC-MS/MS analysis; format: ADME, organism-based; details: in vivo, time 0.083-24 hrs
# [11] = MRT (0 to infinity) in Sprague-Dawley rat measured at 2 mg/kg, iv for 0.083 to 24 hrs by LC-MS/MS analysis; format: ADME, organism-based; details: in vivo, time 0.083-24 hrs
# [12] = Half life in Sprague-Dawley rat measured at 10 mg/kg, po for 0.083 to 24 hrs by LC-MS/MS analysis; format: ADME, organism-based; details: in vivo, time 0.083-24 hrs
# [13] = Ionization constant, pKa of the compound in PBS buffer at pH 1.42 to 12.33 by electrochemical method; format: physicochemical
# [14] = target: Fibroblast growth factor receptor 3 (Homo sapiens, UniProt P22607); experiment: Inhibition of FGFR3 (unknown origin) incubated for 10 mins followed by substrate addition measured after 60 mins by ADP-Glo luminescence assay
# [15] = Clearance in Sprague-Dawley rat measured at 2 mg/kg, iv for 0.083 to 24 hrs by LC-MS/MS analysis; format: ADME, organism-based; details: in vivo, time 0.083-24 hrs
# [16] = Cmax in Sprague-Dawley rat measured at 2 mg/kg, iv for 0.083 to 24 hrs by LC-MS/MS analysis; format: ADME, organism-based; set-up: time upper 24 hrs, time lower 0.083 hrs, dose 2 mg/kg, route iv; details: in vivo
# [17] = Volume of distribution at steady state in Sprague-Dawley rat measured at 2 mg/kg, iv for 0.083 to 24 hrs by LC-MS/MS analysis; format: ADME, organism-based; details: in vivo, time 0.083-24 hrs, read-out: Vdss
# [18] = Permeability of the compound at 10 uM preincubated in acceptor compartment for 16 hrs followed by 16 hrs incubation in donor compartment by PAMPA based LC-MS/MS analysis; format: ADME; details: time 32 hrs, read-out: permeability
# [19] = MRT (0 to t) in Sprague-Dawley rat measured at 10 mg/kg, po for 0.083 to 24 hrs by LC-MS/MS analysis; format: ADME, organism-based; details: in vivo, time 0.083-24 hrs
# [20] = MRT (0 to t) in Sprague-Dawley rat measured at 2 mg/kg, iv for 0.083 to 24 hrs by LC-MS/MS analysis; format: ADME, organism-based; details: in vivo, time 0.083-24 hrs
# [21] = Solubility of the compound in PBS buffer of pH7.4 at 10 mM measured after 2 hrs by LC-MS/MS analysis; format: physicochemical; details: pH 7.4
# [22] = Cmax in Sprague-Dawley rat measured at 10 mg/kg, po for 0.083 to 24 hrs by LC-MS/MS analysis; format: ADME, organism-based; set-up: time 0.083-24 hrs, dose 10 mg/kg, route po; details: in vivo
# [23] = target: Fibroblast growth factor receptor 2 (Homo sapiens, UniProt P21802); experiment: Inhibition of FGFR2 (unknown origin) incubated for 10 mins followed by substrate addition measured after 60 mins by ADP-Glo luminescence assay
# [24] = AUC (0 to infinity) in Sprague-Dawley rat measured at 2 mg/kg, iv for 0.083 to 24 hrs by LC-MS/MS analysis; format: ADME, organism-based; set-up: time lower 0.083 hrs, dose 2 mg/kg, time upper 24 hrs, route iv; details: in vivo
# [25] = target: Fibroblast growth factor receptor 1 (Homo sapiens, UniProt P11362); experiment: Inhibition of FGFR1 (unknown origin) incubated for 10 mins followed by substrate addition measured after 60 mins by ADP-Glo luminescence assay
# [26] = Half life in Sprague-Dawley rat measured at 2 mg/kg, iv for 0.083 to 24 hrs by LC-MS/MS analysis; format: ADME, organism-based; details: in vivo, time 0.083-24 hrs
# Fibroblast growth factor receptor 3, sequence (P22607 whole entry): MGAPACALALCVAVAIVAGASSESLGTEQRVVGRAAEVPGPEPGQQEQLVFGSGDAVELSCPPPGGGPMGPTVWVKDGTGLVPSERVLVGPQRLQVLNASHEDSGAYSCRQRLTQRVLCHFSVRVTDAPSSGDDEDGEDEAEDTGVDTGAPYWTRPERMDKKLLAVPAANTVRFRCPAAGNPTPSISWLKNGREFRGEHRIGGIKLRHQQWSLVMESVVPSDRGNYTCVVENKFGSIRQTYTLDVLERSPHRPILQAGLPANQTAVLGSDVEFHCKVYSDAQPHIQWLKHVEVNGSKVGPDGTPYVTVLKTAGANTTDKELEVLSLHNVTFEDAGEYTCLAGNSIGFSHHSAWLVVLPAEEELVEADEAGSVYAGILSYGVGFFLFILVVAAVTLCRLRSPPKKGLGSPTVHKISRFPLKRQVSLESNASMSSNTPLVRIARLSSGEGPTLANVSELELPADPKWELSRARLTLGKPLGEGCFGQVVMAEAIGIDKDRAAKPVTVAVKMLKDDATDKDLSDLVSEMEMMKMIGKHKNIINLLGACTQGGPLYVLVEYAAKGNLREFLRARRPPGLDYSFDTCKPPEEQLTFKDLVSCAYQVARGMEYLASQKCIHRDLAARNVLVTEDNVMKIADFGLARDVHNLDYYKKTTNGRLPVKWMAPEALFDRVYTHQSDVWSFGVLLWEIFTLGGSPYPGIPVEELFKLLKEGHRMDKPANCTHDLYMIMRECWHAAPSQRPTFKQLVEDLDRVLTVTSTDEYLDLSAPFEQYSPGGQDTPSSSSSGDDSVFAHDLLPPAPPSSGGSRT
# Fibroblast growth factor receptor 1, sequence (P11362 whole entry): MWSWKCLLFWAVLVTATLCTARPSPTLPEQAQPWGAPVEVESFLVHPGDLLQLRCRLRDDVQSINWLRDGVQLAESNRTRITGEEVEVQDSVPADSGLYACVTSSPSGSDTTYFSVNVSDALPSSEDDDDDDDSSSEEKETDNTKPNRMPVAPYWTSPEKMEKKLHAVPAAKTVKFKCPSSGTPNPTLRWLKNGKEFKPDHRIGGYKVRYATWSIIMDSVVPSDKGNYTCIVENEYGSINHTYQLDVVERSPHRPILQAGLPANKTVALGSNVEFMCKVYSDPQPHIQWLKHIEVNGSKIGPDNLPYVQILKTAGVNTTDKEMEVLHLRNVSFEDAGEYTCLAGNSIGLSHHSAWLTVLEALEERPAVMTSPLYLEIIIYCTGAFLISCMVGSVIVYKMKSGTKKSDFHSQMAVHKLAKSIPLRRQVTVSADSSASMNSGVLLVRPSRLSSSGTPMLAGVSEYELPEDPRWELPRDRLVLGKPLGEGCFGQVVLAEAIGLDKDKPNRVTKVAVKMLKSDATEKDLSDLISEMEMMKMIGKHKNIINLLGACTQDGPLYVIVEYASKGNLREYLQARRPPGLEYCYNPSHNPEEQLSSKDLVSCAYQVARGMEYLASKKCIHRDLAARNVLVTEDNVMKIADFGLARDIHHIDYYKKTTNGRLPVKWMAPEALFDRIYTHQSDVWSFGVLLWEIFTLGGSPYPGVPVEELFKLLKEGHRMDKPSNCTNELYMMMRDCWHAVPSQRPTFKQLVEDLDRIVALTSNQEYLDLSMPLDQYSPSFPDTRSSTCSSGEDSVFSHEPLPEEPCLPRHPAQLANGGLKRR
# Fibroblast growth factor receptor 2, sequence (P21802 whole entry): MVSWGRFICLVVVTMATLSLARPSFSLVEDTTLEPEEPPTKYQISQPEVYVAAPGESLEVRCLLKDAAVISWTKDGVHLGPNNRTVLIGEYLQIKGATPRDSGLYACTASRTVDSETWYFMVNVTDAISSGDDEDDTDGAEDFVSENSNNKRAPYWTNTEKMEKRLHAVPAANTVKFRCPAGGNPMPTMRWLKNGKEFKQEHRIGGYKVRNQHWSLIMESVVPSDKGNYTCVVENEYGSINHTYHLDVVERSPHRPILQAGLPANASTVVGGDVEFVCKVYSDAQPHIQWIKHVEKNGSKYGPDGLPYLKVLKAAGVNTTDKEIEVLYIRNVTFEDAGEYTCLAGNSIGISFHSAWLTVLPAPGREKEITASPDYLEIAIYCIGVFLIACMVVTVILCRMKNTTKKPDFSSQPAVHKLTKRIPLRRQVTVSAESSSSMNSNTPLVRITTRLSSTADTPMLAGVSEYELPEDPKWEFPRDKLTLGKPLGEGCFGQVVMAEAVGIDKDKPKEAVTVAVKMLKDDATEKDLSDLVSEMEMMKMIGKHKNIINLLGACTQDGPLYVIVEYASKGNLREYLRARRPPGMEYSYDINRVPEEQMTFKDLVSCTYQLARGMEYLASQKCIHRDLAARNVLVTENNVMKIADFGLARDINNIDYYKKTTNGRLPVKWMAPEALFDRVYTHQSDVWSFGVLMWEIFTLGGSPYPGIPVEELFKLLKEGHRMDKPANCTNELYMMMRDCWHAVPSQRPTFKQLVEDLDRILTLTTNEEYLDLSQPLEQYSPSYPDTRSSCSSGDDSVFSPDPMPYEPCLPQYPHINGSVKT
smiles,measurement,setting,value
C=CC(=O)N1CCC(c2cc3nccc(Oc4ccc(NC(=O)NC5CC5)c(Cl)c4)c3cc2OC)CC1,IC50,Huh-7,> 10 µM
same,inhibition,[1],25.9%
same,IC50,Hep 3B2,> 10 µM
C=CC(=O)N1CCC(c2cc3c(Nc4ccc(OCc5ccccn5)c(Cl)c4)ccnc3cc2OC)CC1,IC50,Huh-7,> 10 µM
same,inhibition,[1],17.1%
same,IC50,Hep 3B2,4.03 µM
C=CC(=O)N1CC=C(c2cc3c(Oc4ccc(NC(=O)NC5CC5)c(Cl)c4)ccnc3cc2OC)CC1,IC50,Huh-7,0.0543 µM
same,IC50,[2],0.00288 µM
same,IC50,Hep 3B2,0.0662 µM
C=CC(=O)N1CCC(c2cc3c(Oc4ccc(NC(=O)NC5CC5)c(Cl)c4)ccnc3cc2OCC(F)(F)F)CC1,IC50,Huh-7,0.0155 µM
same,IC50,[2],0.0145 µM
same,IC50,Hep 3B2,0.0302 µM
C=CC(=O)N1CCC(c2cc3c(Oc4ccc(/N=C5\CCCN5C)c(Cl)c4)ccnc3cc2OC)CC1,IC50,Huh-7,> 10 µM
same,IC50,Hep 3B2,> 10 µM
COc1cc2nccc(Oc3ccc(NC(=O)NC4CC4)c(Cl)c3)c2cc1C1CCN(C(=O)C(F)(F)F)CC1,IC50,Huh-7,1.41 µM
same,inhibition,[1],25.6%
same,IC50,Hep 3B2,> 10 µM
COc1cc2nccc(Oc3ccc(NC(=O)NC4CC4)c(Cl)c3)c2cc1C1=CCN(C(=O)CCl)CC1,IC50,Huh-7,> 10 µM
same,IC50,[2],0.294 µM
same,IC50,Hep 3B2,1.66 µM
C=CC(=O)N1CCC(c2cc3c(Oc4ccc5c(C(=O)NC)cccc5c4)ccnc3cc2OC)CC1,IC50,Huh-7,0.114 µM
same,inhibition,[1],24%
same,IC50,Hep 3B2,0.125 µM
C=CC(=O)N1CCC(c2cc3c(Oc4ccc(NC(=O)NC5CC5)c(OCC)c4)ccnc3cc2OC)CC1,IC50,Huh-7,0.356 µM
same,inhibition,[1],10.7%
same,IC50,Hep 3B2,0.509 µM
C=CC(=O)N1CCC(c2cc3c(Oc4ccc(NC(=O)NC5CC5)c(Cl)c4)ccnc3cc2OCC)CC1,AUC(0-t),[3],1.1 µg·h/mL
same,AUC(0-inf),[4],1.11 µg·h/mL
same,IC50,Huh-7,0.0094 µM
same,MRT,[5],85.2 min
same,bioavailability,[6],43.7%
same,Tmax,[7],4.8 min
same,AUC(0-t),[8],0.505 µg·h/mL
same,C0,[9],3.09 µg/mL
same,Tmax,[10],15 min
same,MRT,[11],10.2 min
same,IC50,[2],0.23 µM
same,half-life,[12],78 min
same,pKa,[13],5.28
same,IC50,Hep 3B2,0.0174 µM
same,IC50,[14],0.0055 µM
same,clearance,[15],3.96 L/h/kg
same,Cmax,[16],1.7 µg/mL
same,Vd,[17],0.659 L/kg
same,"Papp at 16 h, 10 µM",[18],11.1 nm/s
same,MRT last,[19],79.8 min
same,MRT last,[20],9.6 min
same,"solubility at 2 h, 10000 µM",[21],< 0.073 µM
same,Cmax,[22],1.68 µg/mL
same,IC50,[23],0.0052 µM
same,AUC(0-inf),[24],0.506 µg·h/mL
same,IC50,[25],0.0045 µM
same,half-life,[26],14.4 min
C=CC(=O)N1CCC(c2cc3c(Oc4ccc(NC(=O)Nc5cc(C)on5)c(Cl)c4)ccnc3cc2OC)CC1,IC50,Huh-7,0.385 µM
same,inhibition,[1],36.5%
same,IC50,Hep 3B2,0.664 µM
[2H]C([2H])([2H])Oc1cc2nccc(Oc3ccc(NC(=O)NC4CC4)c(Cl)c3)c2cc1C1CCN(C(=O)C=C)CC1,IC50,Huh-7,0.0178 µM
same,IC50,[2],0.00704 µM
same,IC50,Hep 3B2,0.0726 µM
C=CS(=O)(=O)N1CC=C(c2cc3c(Oc4ccc(NC(=O)NC5CC5)c(Cl)c4)ccnc3cc2OC)CC1,IC50,Huh-7,> 10 µM
same,IC50,[2],0.00465 µM
same,IC50,Hep 3B2,5.08 µM
C=CC(=O)N1CCC(c2cc3c(Oc4ccc(NC(=O)Cc5ccccc5)cc4F)ccnc3cc2OC)CC1,IC50,Huh-7,2.21 µM
same,inhibition,[1],1.1%
same,IC50,Hep 3B2,1.35 µM
C=CC(=O)N1CC=C(c2cc3c(Oc4ccc(NC(=O)NC5CC5)c(Cl)c4)ccnc3cc2OC)C1,IC50,Huh-7,1.52 µM
same,IC50,[2],0.00249 µM
same,IC50,Hep 3B2,0.438 µM
